From patent US4520031A, “Method for reducing toxic effects of methyl-glyoxal bis-guanylhydrazone” (priority 1982, dated 1985)
Read-outs that look alike come from different tables or passages of the source.

Assays:
[1] = test system: Adenocarcinoma (unknown primary); assay: Response to weekly MGBG, adenocarcinoma; format: in vivo, human
Method: (§1) During the course of the clinical experiments, MGBG was administered to patients in approximately weekly doses ranging from 250 to 1000 mg per square meter.
(§2) Pre-treatment minimum evaluation included chest roentgenogram, liver and renal function tests, complete blood count with differential and platelet count and serum glucose. Pre-treatment performance status was recorded for each patient in accordance with SWOG criteria.
(§3) This intravenous infusion is administered to the patient over a period of time not less than 30 minutes. Accordingly, an approximation of the patient's surface area in square meters is calculated using a height and weight to surface area nomogram (listed in Documenta Geigy, Scientific Tables (1970) p. 537) and this factor is applied in determining the appropriate amount of MGBG salt to be added to the infusion solution. […] In the absence of toxicity, subsequent doses of MGBG are increased by 100 mg/m^2 over the previous week's dose. If patients experience moderate or severe reversible toxicity, the dose is reduced by 100 mg/m^2 relative to the previous week's dose. No change in dosage strength is made for mild toxicity.

Lymphoma = assay: Response to weekly MGBG, lymphoma; format: in vivo, human; conditions: 2 evaluable patients
Method: as §1, §2, §3

Head & Neck = assay: Response to weekly MGBG, head & neck; format: in vivo, human; conditions: 2 evaluable patients
Method: as §1, §2, §3

Renal = assay: Response to weekly MGBG, renal; format: in vivo, human
Method: as §1, §2, §3

[2] = cited from earlier work; for Penile inflammation: % of male population
protein synthesis = conditions: in vitro; cited from earlier work
Hepatoma = assay: Response to weekly MGBG, hepatoma; format: in vivo, human; conditions: 1 evaluable patient
Method: as §1, §2, §3

[3] = cited from earlier work
[4] = cited from earlier work; remark: listed apart in the source
[5] = test system: mitochondrial respiration; conditions: in vitro; cited from earlier work
polyamine synthesis = conditions: in vitro; cited from earlier work
Pancreas = assay: Response to weekly MGBG, pancreas; format: in vivo, human; conditions: 5 evaluable patients
Method: as §1, §2, §3

Oat Cell = assay: Response to weekly MGBG, oat cell; format: in vivo, human; conditions: 1 evaluable patient
Method: as §1, §2, §3

[6] = over three weeks, 30240 min; cited from earlier work
adenocarcinoma-755 = conditions: Freelander and French; cited from earlier work
Breast = assay: Response to weekly MGBG, breast; format: in vivo, human; conditions: 12 evaluable patients
Method: as §1, §2, §3

[7] = test system: Bladder (transitional cell); assay: Response to weekly MGBG, bladder; format: in vivo, human
Method: as §1, §2, §3

[8] = some peculiar to certain animal species; cited from earlier work
[9] = Group I, less than 100 mg/m^2/day
[10] = Group II, 100 to 125 mg/m^2/day
[11] = Group III, 126 to 160 mg/m^2/day
[12] = acute leukemia, iv 150 mg/m^2/day
[13] = lymphomas and solid tumors, iv 150 mg/m^2/day

With `CC(C=NNC(=N)N)=NNC(=N)N` [MGBG, 1,1'-[(methylethanediylidene)dinitrilo] diguanidine] the “CR (Complete response)” value ([1]; 3 evaluable patients) was 1, the “CR + PR” value ([1]; 3 evaluable patients) was 1 and the “IMP (Improvement noted)” value ([1]; 3 evaluable patients) was 1. For the same compound, the “PR (Partial response)” value ([1]; 3 evaluable patients) was 1, the “Duration Months” value ([1]; duration of CR + PR) was 2 Months and the “No Response” value (Lymphoma) was 2. The “No Response” value (Head & Neck) was 2, the “CR + PR” value (Renal; 5 evaluable patients) was 1 and the “IMP (Improvement noted)” value (Renal; 5 evaluable patients) was 2. For the same compound, the “No Response” value (Renal; 5 evaluable patients) was 2, the “PR (Partial response)” value (Renal; 5 evaluable patients) was 1 and the “Duration Months” value (Renal; duration of CR + PR) was 5 Months. The “Acroerythema (number of patients)” value [2, 9] was 0 patients, the Diarrhea [2, 9] was 40% and the “Diarrhea (number of patients)” value [2, 9] was 4 patients. The Died during treatment [2, 9] was 42%, the “Died during treatment (number of patients)” value [2, 9] was 5 patients and the “Erythema Nodosum” value [2, 9] was 10%. For the same compound, the “Erythema Nodosum (number of patients)” value [2, 9] was 1 patients, the Mucosal involvement [2, 9] was 80% and the “Mucosal involvement (number of patients)” value [2, 9] was 8 patients. For the same compound, the “Penile inflammation (number of patients)” value [2, 9] was 0 patients, the Vasculitis [2, 9] was 40% and the “Vasculitis (number of patients)” value [2, 9] was 4 patients. The “Weight Loss (Median %)” value [2, 9] was 0%, the Penile inflammation [2, 10] was 25% and the Acroerythema [2, 10] was 17%. For the same compound, the “Acroerythema (number of patients)” value [2, 10] was 4 patients, the Diarrhea [2, 10] was 41% and the “Diarrhea (number of patients)” value [2, 10] was 6 patients. The Died during treatment [2, 10] was 62%, the “Died during treatment (number of patients)” value [2, 10] was 10 patients and the “Erythema Nodosum” value [2, 10] was 9%. The “Erythema Nodosum (number of patients)” value [2, 10] was 2 patients, the Mucosal involvement [2, 10] was 98% and the “Mucosal involvement (number of patients)” value [2, 10] was 15 patients. The “Penile inflammation (number of patients)” value [2, 10] was 3 patients, the Vasculitis [2, 10] was 25% and the “Vasculitis (number of patients)” value [2, 10] was 5 patients. For the same compound, the “Weight Loss (Median %)” value [2, 10] was 6%, the Penile inflammation [2, 11] was 23% and the Acroerythema [2, 11] was 17%. For the same compound, the “Acroerythema (number of patients)” value [2, 11] was 6 patients, the Diarrhea [2, 11] was 42% and the “Diarrhea (number of patients)” value [2, 11] was 15 patients. For the same compound, the Died during treatment [2, 11] was 30%, the “Died during treatment (number of patients)” value [2, 11] was 11 patients and the “Erythema Nodosum” value [2, 11] was 12%. The “Erythema Nodosum (number of patients)” value [2, 11] was 3 patients, the Mucosal involvement [2, 11] was 91% and the “Mucosal involvement (number of patients)” value [2, 11] was 31 patients. The “Penile inflammation (number of patients)” value [2, 11] was 4 patients, the Vasculitis [2, 11] was 25% and the “Vasculitis (number of patients)” value [2, 11] was 8 patients. The “Weight Loss (Median %)” value [2, 11] was 10%, the Acroerythema ([2]; Group IV, over 160 mg/m^2/day) was 20% and the “Acroerythema (number of patients)” value ([2]; Group IV, over 160 mg/m^2/day) was 2 patients. For the same compound, the Diarrhea ([2]; Group IV, over 160 mg/m^2/day) was 20%, the “Diarrhea (number of patients)” value ([2]; Group IV, over 160 mg/m^2/day) was 2 patients and the Died during treatment ([2]; Group IV, over 160 mg/m^2/day) was 83%. For the same compound, the “Died during treatment (number of patients)” value ([2]; Group IV, over 160 mg/m^2/day) was 10 patients, the “Erythema Nodosum (number of patients)” value ([2]; Group IV, over 160 mg/m^2/day) was 0 patients and the Mucosal involvement ([2]; Group IV, over 160 mg/m^2/day) was 100%. For the same compound, the “Mucosal involvement (number of patients)” value ([2]; Group IV, over 160 mg/m^2/day) was 10 patients, the “Penile inflammation (number of patients)” value ([2]; Group IV, over 160 mg/m^2/day) was 0 patients and the Vasculitis ([2]; Group IV, over 160 mg/m^2/day) was 20%. For the same compound, the “Vasculitis (number of patients)” value ([2]; Group IV, over 160 mg/m^2/day) was 2 patients, the “Weight Loss (Median %)” value ([2]; Group IV, over 160 mg/m^2/day) was 5% and the “incidence of toxicity under other schedules” value ([2]; continuous 24-hour infusion, very high initial dose then lower maintenance doses, versus daily dosing) was “neither of these regimens altered the incidence of associated toxicity”. For the same compound, the “concentration with direct toxic effects, including inhibition of protein synthesis” value (protein synthesis) was no less than 30000 ng/mL, the “No Response” value (Hepatoma) was 1 and the “Days to first Toxicity” value ([3]; patient 1, 230 mg/m^2/day) was 16 days. The Response ([3]; patient 1, 230 mg/m^2/day) was “None”, the “Days to first Toxicity” value ([3]; patient 2, 340 mg/m^2/day) was 7 days and the Response ([3]; patient 2, 340 mg/m^2/day) was “None”. The “Days to first Toxicity” value ([3]; patient 3, 256 mg/m^2/day) was 9 days, the Response ([3]; patient 3, 256 mg/m^2/day) was “Partial” and the “Days to first Toxicity” value ([3]; patient 4, 264 mg/m^2/day) was 7 days. The Response ([3]; patient 4, 264 mg/m^2/day) was “Complete”, the “Days to first Toxicity” value ([3]; patient 5, 252 mg/m^2/day) was 10 days and the Response ([3]; patient 5, 252 mg/m^2/day) was “Complete”. For the same compound, the “Days to first Toxicity” value ([3]; patient 6, 156 mg/m^2/day) was 10 days, the Response ([3]; patient 6, 156 mg/m^2/day) was “Complete” and the “Days to first Toxicity” value ([3]; patient 7, 194 mg/m^2/day) was 6 days. For the same compound, the Response ([3]; patient 7, 194 mg/m^2/day) was “Complete”, the “Days to first Toxicity” value ([3]; patient 8, 194 mg/m^2/day) was 7 days and the Response ([3]; patient 8, 194 mg/m^2/day) was “Complete”. For the same compound, the “Days to first Toxicity” value ([3]; patient 9, 150 mg/m^2/day) was 23 days, the Response ([3]; patient 9, 150 mg/m^2/day) was “Partial” and the “Toxic Manifestation” value ([3]; patient 9, 150 mg/m^2/day) was “None”. The “Days to first Toxicity” value ([3]; patient 10, 150 mg/m^2/day) was 24 days, the Response ([3]; patient 10, 150 mg/m^2/day) was “Complete” and the “Toxic Manifestation” value ([3]; patient 10, 150 mg/m^2/day) was “None”. The “Days to first Toxicity” value ([3]; patient 11, 150 mg/m^2/day) was 15 days, the Response ([3]; patient 11, 150 mg/m^2/day) was “Complete” and the “Toxic Manifestation” value ([3]; patient 11, 150 mg/m^2/day) was “None”. The “Days to first Toxicity” value ([3]; patient 12, 150 mg/m^2/day) was 13 days, the Response ([3]; patient 12, 150 mg/m^2/day) was “Complete” and the “Days to first Toxicity” value ([3]; patient 13, 150 mg/m^2/day) was 13 days. The Response ([3]; patient 13, 150 mg/m^2/day) was “Complete”, the “Toxic Manifestation” value ([3]; patient 13, 150 mg/m^2/day) was “None” and the “Leukopenia <3000/mm^3 or <50% of initial value” [4, 12] was 16 patients. For the same compound, the “Leukopenia <3000/mm^3 or <50% of initial value, severe toxicity which contributed to death” value [4, 12] was 1 patients, the “response to MGBG” value ([4]; intravenous 150 mg/m^2/day, Regelson and Holland) was “seen only in the presence of significant toxicity which seriously compromised any clinical improvement” and the “"Myositis"” value ([4]; iv 150 mg/m^2/day, 46 patients) was 5 patients. The Cutaneous lesions ([4]; iv 150 mg/m^2/day, 46 patients) was 12 patients, the Diarrhea ([4]; iv 150 mg/m^2/day, 46 patients) was 32 patients and the “Diarrhea, severe toxicity which contributed to death” value ([4]; iv 150 mg/m^2/day, 46 patients) was 1 patients. For the same compound, the “Oropharyngeal and/or esophageal toxicity” value ([4]; iv 150 mg/m^2/day, 63 courses in 46 patients) was 43 patients, the “Hypoglycemia <60 mg %” value ([4]; iv 150 mg/m^2/day) was 4 patients and the “Hypoglycemia <60 mg %, severe toxicity which contributed to death” value ([4]; iv 150 mg/m^2/day) was 2 patients. The Laryngitis ([4]; iv 150 mg/m^2/day) was 14 patients, the “Laryngitis, severe toxicity which contributed to death” value ([4]; iv 150 mg/m^2/day) was 1 patients and the Proctitis ([4]; iv 150 mg/m^2/day) was 2 patients. The Vulvovaginitis ([4]; iv 150 mg/m^2/day) was 4 patients, the “Leukopenia <3000 mm^3” value [4, 13] was 5 patients and the “Leukopenia <3000 mm^3, severe toxicity which contributed to death” value [4, 13] was 1 patients. The “Thrombocytopenia <75,000/mm^3” value [4, 13] was 3 patients, the “deaths to which severe toxicity contributed” value ([4]; of 27 patients who died while on study) was 6 patients and the “concentration with complete inhibition of mitochondrial respiration” value [5] was no less than 30000 ng/mL. For the same compound, the “intermediate concentrations acting selectively on all polyamine synthesis” value (polyamine synthesis) was 0.6 to 2.4 µg/mL, the “CR + PR” value (Pancreas) was 2 and the “No Response” value (Pancreas) was 3. The “PR (Partial response)” value (Pancreas) was 2, the “IMP (Improvement noted)” value (Oat Cell) was 1 and the “administered intravenous dose excreted in the feces” value [6] was “less than 20%”. For the same compound, the “administered intravenous dose excreted in the urine” value [6] was 50%, the antitumor activity (adenocarcinoma-755) was “antitumor activity” and the “IMP (Improvement noted)” value (Breast) was 2. For the same compound, the “No Response” value (Breast) was 10, the “CR (Complete response)” value ([7]; 3 evaluable patients) was 1 and the “CR + PR” value ([7]; 3 evaluable patients) was 1. For the same compound, the “No Response” value ([7]; 3 evaluable patients) was 2, the “Duration Months” value ([7]; duration of CR + PR) was 1 Months and the toxicological effects observed [8] was “gastrointestinal toxicity, delayed and fatal hypoglycemia, hepatic and renal damage, bone marrow depression, diarrhea and phlebitis”.
